Assay results as given in patent publication US5066818A, “Photochromic naphthopyran compounds” (PPG Industries, Inc., priority 1990, dated 1991).

How the values were obtained:
[1] = Photochromic response on optical bench of naphthopyrans imbibed into polymer test samples; format: physicochemical; details: homopolymer of diethylene glycol bis(allyl carbonate); for Δ OD at SATURATION: 150 watt Xenon lamp, about one sun, twenty minutes exposure; for Bleach Rate T1/2: values in sec.
Method: Naphthopyran compounds prepared in the above-described Examples were imbibed by thermal transfer into test samples of a homopolymer of diethylene glycol bis(allyl carbonate) by the following procedure. Each naphthopyran was dissolved into toluene solvent to form a 4% solution of the compound. A piece of No. 4 Whatman filter paper was saturated with the naphthopyran solution and allowed to air dry. The dried filter paper was placed on one side of the polymer test sample, which measured 1/8 inch (0.3 centimeter)×2 inch (5.1 centimeters)×2 inch (5.1 centimeters). A piece of untreated filter paper was placed on the other side of the polymer test sample and the resulting sandwich placed between two plates of flat aluminum metal plates. The entire assembly was then placed in a 155° C. oven for a time sufficient to thermally transfer the naphthopyran into the polymer test sample.
The imbibed test samples were removed from the oven, washed with acetone, and tested for photochromic response rates on an optical bench. The samples were illuminated by a 150 watt Xenon lamp fitted with a copper sulfate bath and neutral density filter at an intensity of about one sun. The optical density at saturation was determined at twenty minutes exposure.

[2] = Photochromic behaviour (coloring, bleaching) stated in words; format: physicochemical; details: for coloring on exposure to ultraviolet light: near ultraviolet; for bleaching / rate of fade in words: room temperature and above, or ambient temperature

Δ OD at SATURATION [1]	Bleach Rate T1/2 [1] [min]	Compound	coloring on exposure to ultraviolet light [2]	bleaching / rate of fade in words [2]
0.25	0.583	COc1ccc(C2(c3ccccc3)C=Cc3c(ccc4ccccc34)O2)cc1 (centres unmarked) [Comparative Example 2, 3-phenyl-3(4-methoxyphenyl)-3H-naphtho[2,1-b]pyran]	–	–
1.63	–	FC(F)(F)c1ccc(C2(c3ccccc3)C=Cc3ccc4ccccc4c3O2)cc1 (centres unmarked) [Comparative Example 4, 3-phenyl-3(4-trifluoromethylphenyl)-2H-naphtho[1,2-b]pyran]	–	–
1.35	8.5	COc1ccc(C2(c3ccc(OC)cc3C)C=Cc3c(ccc4ccccc34)O2)cc1 (centres unmarked) [Example 3, 3(2-methyl-4-methoxyphenyl)-3-(4methoxyphenyl)-3H-naphtho-[2,1-b]pyran]	–	–
2.40	10	COc1ccc(C2(c3ccccc3C)C=Cc3c(ccc4ccccc34)O2)cc1 (centres unmarked) [Example 4, 3(2-methylphenyl)-3-(4-methoxyphenyl)-3H-naphtho[2,1-b]pyran]	–	–
1.42	8.5	COc1ccc(C2(c3ccccc3)C=Cc3c(ccc4ccccc34)O2)c(OC)c1 (centres unmarked) [Example 5, 3-phenyl-3-(2,4-dimethoxyphenyl)-3H-naphtho[2,1-b]pyran]	–	–
2.23	–	COc1ccc(C2(c3c(F)cccc3F)C=Cc3c(ccc4ccccc34)O2)cc1 (centres unmarked) [Example 6, 3(2,6-difluorophenyl)-3(4-methoxyphenyl)-3H-naphtho[2,1-b]pyran]	–	–
1.37	–	C1=CC(c2ccccc2)(c2ccccc2)Oc2c1ccc1ccccc21 [a., 2,2diphenyl-2H naphthol[1,2b]pyran]	colors on exposure to near ultraviolet light at room temperature	does not bleach in a reasonable period of time
0.36	0.75	C1=CC(c2ccccc2)(c2ccccc2)Oc2ccc3ccccc3c21 [compound 1, 3,3-diphenyl-3H-naphtho[2,1-b]pyran]	change color on exposure to the near ultraviolet	bleaches too rapidly for use in an ophthalmic lens
0.21	0.667	COc1ccc(C2(c3ccc(C)cc3)C=Cc3c(ccc4ccccc34)O2)cc1 (centres unmarked) [compound 3, 3(4-methylphenyl)-3-(4-methoxyphenyl)-3H-naphtho[2,1-b]pyran]	–	–
1.07	–	FC(F)(F)c1cccc(C2(c3cccc(C(F)(F)F)c3)C=Cc3ccc4ccccc4c3O2)c1 [compound 5, 3,3-di(3-trifluoromethyl)phenyl-2H-naphtho [1,2-b]pyran]	–	–
